Assay results from US9708259B2 (Hoffmann-La Roche Inc., priority 2013, dated 2017).
Residue numbers refer to the chain shown, from its start. Where two headings read alike, the source gives them in different places.

Experiments:
[1] = target: T1, ratM1 (Rattus norvegicus, UniProt P08482); experiment: M1 PAM assay (FLIPR intracellular calcium), rat M1; assay type: cell-based
T1 construct: expressed in transfected cells; host or cells: CHO cells (stated generally for the assay, not specifically for rat M1)
T1 sequence (P08482 1-460): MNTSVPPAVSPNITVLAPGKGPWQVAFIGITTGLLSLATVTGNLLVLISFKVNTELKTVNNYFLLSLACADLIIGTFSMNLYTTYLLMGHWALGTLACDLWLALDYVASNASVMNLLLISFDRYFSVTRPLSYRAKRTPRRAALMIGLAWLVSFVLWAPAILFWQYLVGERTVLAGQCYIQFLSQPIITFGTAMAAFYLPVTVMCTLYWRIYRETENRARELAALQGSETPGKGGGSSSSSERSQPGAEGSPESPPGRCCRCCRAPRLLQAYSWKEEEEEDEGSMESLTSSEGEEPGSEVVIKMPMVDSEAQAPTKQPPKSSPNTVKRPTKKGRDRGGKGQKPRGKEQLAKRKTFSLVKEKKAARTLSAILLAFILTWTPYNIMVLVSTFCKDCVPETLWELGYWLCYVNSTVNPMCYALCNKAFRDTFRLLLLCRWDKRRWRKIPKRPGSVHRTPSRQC

[2] = target: T2, human M1 (Homo sapiens, UniProt P11229); experiment: M1 PAM assay (FLIPR intracellular calcium), human M1; assay type: cell-based
T2 construct: expressed in transfected cells; host or cells: CHO cells
T2 sequence (P11229 1-460): T1 sequence (P08482 1-460) with V5A, S254T, S309P, K320R, G337A, V413I
Procedure: The assay study the effect of several concentrations of test compounds on basal or acetylcholine-stimulated Ca^2+ levels using FLIPR.
CHO human M1 are plated the day before the experiments at 2×10^5 cells/ml in PDL BioCoat 96 well black/clear plate (Becton 35 4640). The cells are grown at 37° C. and 5% CO2 in the following medium: F12 Nut Mix (Gibco 21765), 10% FCS heat inactivated (GIBCO 16000-044), 1% Pen Strep (Gibco,15140) and 200 μg/ml Geneticin (Gibco 11811). On the day of the experiment, the medium was removed and replaced by […] of dye loading buffer containing Hanks Balanced Salt solution (HBSS, 14065-049, Gibco) with 20 mM HEPES (Gibco 15630-056), 2 mM Probenicid (Sigma P8761), […] ester (Molecular Probes F-14202), 10% Pluronic acid Molecular Probes P-3000) pH=7.4 and incubated at 37° C. After 60 minutes extracellular dye was removed and the cells were washed five times with FLIPR buffer containing HBSS (Gibco 14065-049) with 20 mM HEPES (Gibco, 15630-056), 2 mM Probenicid (Sigma P8761) pre-warmed at 37° C. using and Ebml cell washer leaving […] of FLIPR buffer in each well. The cell plate and the diluted compounds (1% DMSO final concentration) are placed on the platform of the FLIPR and the door closed. A signal test to check background fluorescence and basal fluorescence signal is performed. Laser intensity is adjusted if necessary. Two minutes preincubation with the diluted test compounds is provide to determine any agonist activity on the M1 receptor by comparison to 30 nM Acetylcholine control. In order to determine any modulator activity the diluted compounds were added to cells and after two minutes preincubation, the EC20 of acetylcholine is added followed by another two minutes preincubation before the measurement of intracellular Ca^2+ with a FLIPR (Molecular Devices).

[3] = rat M1, FLIPR Ca2+, second value of the cell, read-out: ratM1 EC50
[4] = CHO human M1 cells, FLIPR Ca2+, with EC20 of acetylcholine, first value of the cell, read-out: hM1 EC50

Cn1cc(-c2ccc(Cn3cc(C(=O)NC4CCOCC4)c4c(F)cccc43)c(F)c2)cn1 [Example 21, 4-fluoro-1-(2-fluoro-4-(1-methyl-1H-pyrazol-4-yl)benzyl)-N-(tetrahydro-2H-pyran-4-yl)-1H-indole-3-carboxamide]
EC50 [1, 3]: 175 nM
EC50 [2, 4]: 60.5 nM

Cn1cc(-c2ccc(Cn3nc(C(=O)N[C@H]4CCCC[C@@H]4O)c4c(F)cccc43)c(F)c2)cn1 [Example 3, 4-fluoro-1-(2-fluoro-4-(1-methyl-1H-pyrazol-4-yl)benzyl)-N-((1S,2S)-2-hydroxycyclohexyl)-1H-indazole-3-carboxamide]
EC50 [1, 3]: 90.6 nM
EC50 [2, 4]: 25.2 nM

O=C(N[C@H]1CCCC[C@@H]1O)c1cn(Cc2cnc(-c3ccccc3)nc2)c2cccc(F)c12 [Example 139, 4-fluoro-N-((1S,2S)-2-hydroxycyclohexyl)-1-((2-phenylpyrimidin-5-yl)methyl)-1H-indole-3-carboxamide]
EC50 [1, 3]: 2630 nM
EC50 [2, 4]: 423 nM

Cn1ncc2cc(Cn3cc(C(=O)NC4CCOCC4)c4c(F)cccc43)ccc21 [Example 66, 4-fluoro-1-((1-methyl-1H-indazol-5-yl)methyl)-N-(tetrahydro-2H-pyran-4-yl)-1H-indole-3-carboxamide]
EC50 [1]: 412 nM
EC50 [2]: 216 nM

Cn1cc(-c2ccc(Cn3cc(C(=O)N[C@H]4CCCC[C@@H]4O)c4c(F)c(F)ccc43)cn2)cn1 [Example 58, 4,5-difluoro-N-((1S,2S)-2-hydroxycyclohexyl)-1-((6-(1-methyl-1H-pyrazol-4-yl)pyridine-3-yl)methyl)-1H-indole-3-carboxamide]
EC50 [1, 3]: 10000 nM
EC50 [2, 4]: 174 nM

Cn1cc(-c2ccc(Cn3cc(C(=O)NC4CCOCC4)c4c(F)ccc(F)c43)cc2)cn1 [Example 95, 4,7-difluoro-1-(4-(1-methyl-1H-pyrazol-4-yl)benzyl)-N-(tetrahydro-2H-pyran-4-yl)-1H-indole-3-carboxamide]
EC50 [1, 3]: 50 nM
EC50 [2, 4]: 27 nM

N#Cc1ccc(Cn2cc(C(=O)N[C@H]3CCOC[C@@H]3O)c3c(F)cccc32)cc1 (single isomer, unassigned) [Example 54, 1-(4-cyanobenzyl)-4-fluoro-N-((3R,4S) or (3S,4R)-3-hydroxytetrahydro-2H-pyran-4-yl)-1H-indole-3-carboxamide]
EC50 [1]: 122 nM
EC50 [2]: 69.6 nM

Cn1cc(-c2ccc(Cn3cc(C(=O)NCC4COC4)c4c(F)cccc43)cc2)cn1 [Example 13, 4-fluoro-1-(4-(1-methyl-1H-pyrazol-4-yl)benzyl)-N-(oxetan-3-ylmethyl)-1H-indole-3-carboxamide]
EC50 [1, 3]: 250 nM
EC50 [2, 4]: 192 nM

O=C(N[C@H]1CCCC[C@@H]1O)c1cn(Cc2ccc(-c3ccccc3)cn2)c2cccc(F)c12 [Example 140]
EC50 [1, 3]: 518 nM
EC50 [2, 4]: 103 nM

Cn1cc(-c2ccc(Cn3cc(C(=O)NC4CCOCC4)c4c(F)cccc43)cn2)cn1 [Example 68, 4-fluoro-1-((6-(1-methyl-1H-pyrazol-4-yl)yridine-3-yl)methyl)-N-(tetrahydro-2H-pyran-4-yl)-1H-indole-3-carboxamide]
EC50 [1, 3]: 182 nM
EC50 [2, 4]: 267 nM

CNC(=O)c1ccc(Cn2cc(CC(=O)N[C@H]3CCCC[C@@H]3O)c3c(F)cccc32)cc1 [Example 99]
EC50 [1, 3]: 195 nM
EC50 [2, 4]: 54 nM

O=C(N[C@H]1CCCC[C@@H]1O)c1cn(Cc2ccccc2)c2cccc(F)c12 [Example 47, 1-benzyl-4-fluoro-N-((1S,2S)-2-hydroxycyclohexyl)-1H-indole-3-carboxamide]
EC50 [1]: 393 nM
EC50 [2]: 118 nM

CNC(=O)c1ccc(Cn2cc(C(=O)NC3CCCCCC3)c3c(F)cccc32)cc1 [Example 115, N-cycloheptyl-4-fluoro-1-[[4-(methylcarbamoyl)phenyl]methy]indole-3-carboxamide]
EC50 [1, 3]: 28 nM
EC50 [2, 4]: 50 nM

Cn1ncc2cc(Cn3cc(C(=O)N[C@H]4CCCC[C@@H]4O)c4c(F)cccc43)ccc21 [Example 37, 4-fluoro-N-((1S,2S)-2-hydroxycyclohexyl)-1-((1-methyl-1H-indazol-5-yl)methyl)-1H-indole-3-carboxamide]
EC50 [1]: 39.5 nM
EC50 [2]: 43.8 nM

Cn1cc(-c2ccc(Cn3nc(C(=O)N[C@H]4CCOC[C@@H]4O)c4c(F)cccc43)c(F)c2)cn1 (racemic) [Example 7, 4-fluoro-1-(2-fluoro-4-(1-methyl-1H-pyrazol-4-yl)benzyl)-N-((3RS,4SR)-3-hydroxytetrahydro-2H-pyran-4-yl)-1H-indazole-3-carboxamide]
EC50 [1, 3]: 147 nM
EC50 [2, 4]: 70 nM

Cc1ccn(-c2ccc(Cn3cc(C(=O)N[C@H]4CCCC[C@@H]4O)c4c(F)cccc43)cc2)n1 [Example 50, 4-fluoro-N-((1S,2S)-2-hydroxycyclohexyl)-1-(4-(3-methyl-1H-pyrazol-1-yl)benzyl)-1H-indole-3-carboxamide]
EC50 [1, 3]: 13.9 nM
EC50 [2, 4]: 18.3 nM

CNC(=O)c1ccc(Cn2cc(C(=O)NC3CCOC(C)C3)c3c(F)cccc32)cc1 (stereo not shown) [Example 127, 4-fluoro-1-[[4-(methylcarbamoyl)phenyl]methyl]-N-(2-methyloxan-4-yl)indole-3-carboxamide]
EC50 [1, 3]: 26 nM
EC50 [2, 4]: 19 nM

O=C(N[C@H]1CCOC[C@@H]1O)c1cn(Cc2ccc(-c3nccs3)cc2)c2cccc(F)c12 [Example 79, 4-fluoro-N-((3R,4S)-3-hydroxytetrahydro-2H-pyran-4-yl)-1-(4-(thiazol-2-yl)benzyl)-1H-indole-3-carboxamide]
EC50 [1, 3]: 25.6 nM
EC50 [2, 4]: 16.8 nM

Cn1cc(-c2ccc(Cn3cc(C(=O)N[C@@H]4CCCC[C@H]4O)c4c(F)cccc43)c(F)c2)cn1 [Example 2]
EC50 [1, 3]: 208 nM
EC50 [2, 4]: 39 nM

COc1ccc(F)c2c(C(=O)N[C@H]3CCCC[C@@H]3O)cn(Cc3ccc(-c4cnn(C)c4)cc3)c12 [Example 148, 4-fluoro-N-((1S,2S)-2-hydroxycyclohexyl)-7-methoxy-1-(4-(1-methyl-1H-pyrazol-4-yl)benzyl)-1H-indole-3-carboxamide]
EC50 [1, 3]: 139 nM
EC50 [2, 4]: 84 nM

O=C(NC1CC1)c1ccc(Cn2cc(C(=O)N[C@H]3CCCC[C@@H]3O)c3c(F)cccc32)cc1 [Example 146, 1-(4-(cyclopropylcarbamoyl)benzyl)-4-fluoro-N-((1S,2S)-2-hydroxycyclohexyl)-1H-indole-3-carboxamide]
EC50 [1, 3]: 5 nM
EC50 [2, 4]: 2 nM

Cc1cn(-c2ccc(Cn3cc(C(=O)N[C@H]4CCOC[C@@H]4O)c4c(F)cccc43)cc2)cn1 (single isomer, unassigned) [Example 51, 4-fluoro-N-((3R,4S) or (3S,4R)-3-hydroxytetrahydro-2H-pyran-4-yl)-1-(4-(4-methyl-1H-imidazol-1-yl)benzyl)-1H-indole-3-carboxamide]
EC50 [1, 3]: 11.2 nM
EC50 [2, 4]: 12.3 nM

Cn1cc(-c2ccc(Cn3cc(C(=O)N[C@@H]4CCCC(F)(F)[C@H]4O)c4c(F)cccc43)cc2)cn1 [Example 100, N-((1R,2S)-3,3-difluoro-2-hydroxycyclohexyl)-4-fluoro-1-(4-(1-methyl-1H-pyrazol-4-yl)benzyl)-1H-indole-3-carboxamide]
EC50 [1, 3]: 15 nM
EC50 [2, 4]: 4 nM
